Tests used:
wheat (winter wheat) = assay: Test C pre-/postemergence herbicide test; assay type: in vivo, Triticum aestivum
Outline: (§1)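 Greenhouse pots; formulation = non-phytotoxic solvent mix + surfactant. PRE onto seeds in loam:sand; POST at 1–4 leaves (2–18 cm) in peat moss/vermiculite medium. Read-out: visual % control vs untreated, day 13–15.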

corn = assay: Test C pre-/postemergence herbicide test; assay type: in vivo, Zea mays
Outline: as §1

barnyardgrass [1] = assay: Test B flooded paddy test; assay type: in vivo, Echinochloa crus-galli; settings: Flood, scale of 0 to 100 where 0 is no effect and 100 is complete control
Outline: (§2)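 Visual ratings from 0, meaning no effect, up to 100, meaning complete control, were made by comparison with untreated controls 13 to 15 days after treatment. Test compounds went straight into floodwater standing 3 cm over the soil of pots holding 2-leaf seedlings.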

velvetleaf = assay: Test C pre-/postemergence herbicide test; assay type: in vivo, Abutilon theophrasti
Outline: as §1

soybean = assay: Test C pre-/postemergence herbicide test; assay type: in vivo, Glycine max
Outline: as §1

oat, wild = assay: Test C pre-/postemergence herbicide test; assay type: in vivo, Avena fatua; settings: Postemergence
Outline: as §1

lambsquarters = assay: Test C pre-/postemergence herbicide test; assay type: in vivo, Chenopodium album
Outline: as §1

sedge, umbrella = assay: Test B flooded paddy test; assay type: in vivo, Cyperus difformis; settings: Flood, scale of 0 to 100 where 0 is no effect and 100 is complete control
Outline: as §2

blackgrass = assay: Test C pre-/postemergence herbicide test; assay type: in vivo, Alopecurus myosuroides; settings: for Blackgrass plant response rating: scale 0 to 100, 0 is no effect and 100 is complete control
Outline: as §1

crabgrass, large = assay: Test C pre-/postemergence herbicide test; assay type: in vivo, Digitaria sanguinalis
Outline: as §1

barnyardgrass [2] = assay: Test A pre-/postemergence herbicide test; assay type: in vivo, Echinochloa crus-galli
Outline: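 Greenhouse pot test with pre- and postemergence application of surfactant-containing solvent formulations. Postemergence plants were 2–10 cm, one- to two-leaf stage. Response scored visually after ~10 days, 0 (no effect) to 100 (complete control).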

[3] = Postemergence, 31 g ai/ha, scale 0 to 100 (0 no effect, 100 complete control)
[4] = Postemergence, 62 g ai/ha, scale 0 (no effect) to 100 (complete control)
[5] = Postemergence, 125 g ai/ha, scale 0 to 100 (0 no effect, 100 complete control)
[6] = Postemergence, 250 g ai/ha, scale 0 to 100 (0 no effect, 100 complete control)
[7] = Preemergence, 31 g ai/ha, scale 0 to 100, 0 is no effect and 100 is complete control
[8] = Preemergence, 62 g ai/ha, scale 0 to 100
[9] = Preemergence, 125 g ai/ha, scale 0 to 100 (0 no effect, 100 complete control)
[10] = 31 g ai/ha, scale 0 to 100 (0 no effect, 100 complete control)
[11] = 62 g ai/ha, scale 0 (no effect) to 100 (complete control)
[12] = 125 g ai/ha, scale 0 to 100 (0 no effect, 100 complete control)
[13] = 250 g ai/ha, scale 0 to 100 (0 no effect, 100 complete control)
[14] = 125 g ai/ha, visual rating, 0 to 100 scale, 0 no effect, 100 complete control, approximately 10 days, preemergence
[15] = Postemergence, 125 g ai/ha, 0 to 100 scale, 0 no effect, 100 complete control
[16] = Postemergence, 500 g ai/ha, 0 to 100 scale (0 no effect, 100 complete control)
[17] = preemergence, 500 g ai/ha, 0 to 100 scale (0 no effect, 100 complete control)
[18] = Preemergence, 62 g ai/ha, scale 0 to 100 (0 no effect, 100 complete control)
[19] = Postemergence, 31 g ai/ha, scale 0 (no effect) to 100 (complete control)
[20] = Postemergence, 62 g ai/ha, scale 0 to 100 (0 no effect, 100 complete control)

O=C1NCC(c2ccc(F)cc2)C1C(=O)Nc1ccc(F)c(F)c1F (racemic) [Compound 120]
98: Crabgrass, Large plant response rating (crabgrass, large; [7])
75: Plant response rating, Crabgrass, Large (crabgrass, large; [6])
20: Plant response rating, Corn (corn; [9]) | Plant response rating, Velvetleaf (velvetleaf; [8])
5: Plant response rating, Velvetleaf (velvetleaf; [5])
100: Plant response rating, Crabgrass, Large (crabgrass, large; [8]) | Plant response rating, Crabgrass, Large (crabgrass, large; [9]) | Plant response rating (scale of 0 to 100), Crabgrass, Large (crabgrass, large; Preemergence, 250 g ai/ha)
55: Plant response rating, Lambsquarters (lambsquarters; [3]) | Plant response rating, Lambsquarters (lambsquarters; [4]) | Plant response rating, Crabgrass, Large (crabgrass, large; [3])
70: Plant response rating, Lambsquarters (lambsquarters; [6]) | Plant response rating, Lambsquarters (lambsquarters; [8]) | Plant response rating (scale of 0 to 100), Blackgrass (blackgrass; Preemergence, 250 g ai/ha) | Plant response rating, Crabgrass, Large (crabgrass, large; [4]) | Plant response rating, Crabgrass, Large (crabgrass, large; [5])
0: Plant response rating, Wheat (wheat (winter wheat); [3]) | Plant response rating, Wheat (wheat (winter wheat); [4]) | Plant response rating, Wheat (wheat (winter wheat); [5]) | Plant response rating, Wheat (wheat (winter wheat); [6]) | Plant response rating, Corn (corn; [3]) | Plant response rating, Corn (corn; [4]) | Plant response rating, Corn (corn; [5]) | Plant response rating, Corn (corn; [6]) | Corn plant response rating (corn; [7]) | Plant response rating, Corn (corn; [8]) | Plant response rating, Velvetleaf (velvetleaf; [4]) | Velvetleaf plant response rating (velvetleaf; [7]) | Plant response rating, Soybean (soybean; [3]) | Plant response rating, Soybean (soybean; [4]) | Plant response rating, Soybean (soybean; [5]) | Plant response rating, Soybean (soybean; [6]) | Soybean plant response rating (soybean; [7]) | Plant response rating, Soybean (soybean; [8]) | Plant response rating, Soybean (soybean; [9]) | Plant response rating (scale of 0 to 100), Soybean (soybean; Preemergence, 250 g ai/ha) | Plant response rating, Oat, Wild (oat, wild; [10]) | Plant response rating, Oat, Wild (oat, wild; [11]) | Plant response rating, Oat, Wild (oat, wild; [12]) | Plant response rating, Oat, Wild (oat, wild; [13]) | Plant response rating, Sedge, Umbrella (sedge, umbrella; 500 g ai/ha) | Plant response rating, Blackgrass (blackgrass; [3]) | Plant response rating, Blackgrass (blackgrass; [4]) | Plant response rating, Blackgrass (blackgrass; [5]) | Plant response rating, Blackgrass (blackgrass; [6])
25: Plant response rating, Velvetleaf (velvetleaf; [3]) | Plant response rating, Velvetleaf (velvetleaf; [6])
80: Plant response rating, Barnyardgrass (barnyardgrass [1]; 500 g ai/ha) | Plant response rating, Barnyardgrass (barnyardgrass [2]; [15])
65: Plant response rating (scale of 0 to 100), Corn (corn; Preemergence, 250 g ai/ha)
60: Plant response rating, Lambsquarters (lambsquarters; [5])
10: Wheat plant response rating (wheat (winter wheat); [7])
35: Plant response rating, Wheat (wheat (winter wheat); [8]) | Plant response rating, Velvetleaf (velvetleaf; [9]) | Lambsquarters plant response rating (lambsquarters; [7]) | Blackgrass plant response rating (blackgrass; Preemergence, 31 g ai/ha)
90: Plant response rating (scale of 0 to 100), Lambsquarters (lambsquarters; Preemergence, 250 g ai/ha) | Plant response rating, Barnyardgrass (barnyardgrass [2]; [14]) | Plant response rating, Barnyardgrass (barnyardgrass [2]; [16]) | Plant response rating, Barnyardgrass (barnyardgrass [2]; [17])
40: Plant response rating (scale of 0 to 100), Velvetleaf (velvetleaf; Preemergence, 250 g ai/ha)
30: Plant response rating, Wheat (wheat (winter wheat); [9])
50: Plant response rating, Blackgrass (blackgrass; [8]) | Plant response rating, Blackgrass (blackgrass; [9])
85: Plant response rating (scale of 0 to 100), Wheat (wheat (winter wheat); Preemergence, 250 g ai/ha) | Plant response rating, Lambsquarters (lambsquarters; [9])

O=C1NCC(c2cccc(OC(F)F)c2)C1C(=O)Nc1cccc(F)c1F (centres unmarked) [Compound 224]
55: Lambsquarters plant response rating (lambsquarters; [7]) | Plant response rating, Crabgrass, Large (crabgrass, large; [5])
65: Lambsquarters plant response rating (lambsquarters; [18]) | Plant response rating, Blackgrass (blackgrass; [8])
85: Plant response rating, Corn (corn; [9]) | Plant response rating (scale of 0 to 100), Corn (corn; Preemergence, 250 g ai/ha) | Plant response rating (scale of 0 to 100), Blackgrass (blackgrass; Preemergence, 250 g ai/ha)
35: Plant response rating, Velvetleaf (velvetleaf; [6]) | Plant response rating, Crabgrass, Large (crabgrass, large; [4])
25: Plant response rating, Velvetleaf (velvetleaf; [5])
50: Plant response rating, Lambsquarters (lambsquarters; [4])
60: Plant response rating, Lambsquarters (lambsquarters; [6])
95: Plant response rating, Lambsquarters (lambsquarters; [9]) | Plant response rating (scale of 0 to 100), Lambsquarters (lambsquarters; Preemergence, 250 g ai/ha)
90: Crabgrass, Large plant response rating (crabgrass, large; [7]) | Crabgrass, Large plant response rating (crabgrass, large; [18]) | Plant response rating, Crabgrass, Large (crabgrass, large; [9]) | Plant response rating, Barnyardgrass (barnyardgrass [2]; [14]) | Barnyardgrass plant response rating (0 to 100 scale, 0 is no effect, 100 is complete control) (barnyardgrass [2]; Postemergence, 500 g ai/ha) | Plant response rating, Barnyardgrass (barnyardgrass [2]; preemergence, 500 g ai/ha, 0 to 100 scale, 0 is no effect and 100 is complete control)
75: Plant response rating, Crabgrass, Large (crabgrass, large; [6])
70: Plant response rating, Barnyardgrass (barnyardgrass [1]; 500 g ai/ha) | Plant response rating, Lambsquarters (lambsquarters; [5]) | Plant response rating, Blackgrass (blackgrass; [9])
10: Plant response rating, Corn (corn; [5]) | Plant response rating, Corn (corn; [6]) | Corn plant response rating (corn; [7]) | Plant response rating, Soybean (soybean; [4])
80: Plant response rating, Barnyardgrass (barnyardgrass [2]; Postemergence, 125 g ai/ha, 0 to 100 scale, 0 is no effect, 100 is complete control)
15: Plant response rating, Oat, Wild (oat, wild; [13])
45: Plant response rating (scale of 0 to 100), Wheat (wheat (winter wheat); Preemergence, 250 g ai/ha) | Plant response rating, Velvetleaf (velvetleaf; [9])
40: Plant response rating (scale of 0 to 100), Velvetleaf (velvetleaf; Preemergence, 250 g ai/ha)
100: Soybean plant response rating (soybean; [18]) | Plant response rating (scale of 0 to 100), Crabgrass, Large (crabgrass, large; Preemergence, 250 g ai/ha)
5: Plant response rating, Wheat (wheat (winter wheat); [5]) | Plant response rating, Wheat (wheat (winter wheat); [6]) | Velvetleaf plant response rating (velvetleaf; [18]) | Plant response rating, Soybean (soybean; [5]) | Plant response rating, Soybean (soybean; [6]) | Plant response rating (scale of 0 to 100), Soybean (soybean; Preemergence, 250 g ai/ha) | Plant response rating, Oat, Wild (oat, wild; [12]) | Plant response rating, Lambsquarters (lambsquarters; [3])
0: Plant response rating, Wheat (wheat (winter wheat); [3]) | Plant response rating, Wheat (wheat (winter wheat); [4]) | Wheat plant response rating (wheat (winter wheat); [7]) | Wheat plant response rating (wheat (winter wheat); [18]) | Plant response rating, Wheat (wheat (winter wheat); [9]) | Plant response rating, Corn (corn; [3]) | Plant response rating, Corn (corn; [4]) | Corn plant response rating (corn; [18]) | Plant response rating, Velvetleaf (velvetleaf; [3]) | Plant response rating, Velvetleaf (velvetleaf; [4]) | Velvetleaf plant response rating (velvetleaf; [7]) | Plant response rating, Soybean (soybean; [3]) | Soybean plant response rating (soybean; [7]) | Plant response rating, Soybean (soybean; [9]) | Plant response rating, Oat, Wild (oat, wild; [10]) | Plant response rating, Oat, Wild (oat, wild; [11]) | Plant response rating, Sedge, Umbrella (sedge, umbrella; 500 g ai/ha) | Plant response rating, Blackgrass (blackgrass; [3]) | Plant response rating, Blackgrass (blackgrass; [4]) | Plant response rating, Blackgrass (blackgrass; [5]) | Plant response rating, Blackgrass (blackgrass; [6]) | Blackgrass plant response rating (blackgrass; Preemergence, 31 g ai/ha) | Plant response rating, Crabgrass, Large (crabgrass, large; [3])

O=C1NCC(c2cc(F)c(F)cc2F)C1C(=O)Nc1cccc(F)c1F (centres unmarked) [Compound 50]
25: Plant response rating, Velvetleaf (velvetleaf; [5]) | Plant response rating, Crabgrass, Large (crabgrass, large; [20])
90: Plant response rating, Barnyardgrass (barnyardgrass [2]; [17])
75: Plant response rating, Crabgrass, Large (crabgrass, large; [6])
5: Plant response rating, Corn (corn; [5]) | Plant response rating, Corn (corn; [6]) | Plant response rating, Lambsquarters (lambsquarters; [19])
15: Plant response rating, Velvetleaf (velvetleaf; [20]) | Plant response rating, Soybean (soybean; [20]) | Plant response rating, Soybean (soybean; [5]) | Plant response rating, Lambsquarters (lambsquarters; [6])
40: Plant response rating, Crabgrass, Large (crabgrass, large; [5])
20: Plant response rating, Soybean (soybean; [6])
10: Plant response rating, Soybean (soybean; [19]) | Plant response rating, Lambsquarters (lambsquarters; [20]) | Plant response rating, Lambsquarters (lambsquarters; [5]) | Plant response rating, Crabgrass, Large (crabgrass, large; [19])
0: Plant response rating, Wheat (wheat (winter wheat); [19]) | Plant response rating, Wheat (wheat (winter wheat); [20]) | Plant response rating, Wheat (wheat (winter wheat); [5]) | Plant response rating, Wheat (wheat (winter wheat); [6]) | Plant response rating, Corn (corn; [19]) | Plant response rating, Corn (corn; [20]) | Plant response rating, Barnyardgrass (barnyardgrass [1]; 250 g ai/ha) | Plant response rating, Velvetleaf (velvetleaf; [19]) | Plant response rating, Oat, Wild (oat, wild; 31 g ai/ha, scale 0 (no effect) to 100 (complete control)) | Plant response rating, Oat, Wild (oat, wild; 62 g ai/ha, scale 0 to 100 (0 no effect, 100 complete control)) | Plant response rating, Oat, Wild (oat, wild; [12]) | Plant response rating, Oat, Wild (oat, wild; [13]) | Plant response rating, Blackgrass (blackgrass; [19]) | Plant response rating, Blackgrass (blackgrass; [20]) | Plant response rating, Blackgrass (blackgrass; [5]) | Plant response rating, Blackgrass (blackgrass; [6])
30: Barnyardgrass plant response rating (barnyardgrass [2]; Preemergence, 125 g ai/ha, visual rating on 0 to 100 scale (0 no effect, 100 complete control))
55: Plant response rating, Sedge, Umbrella (sedge, umbrella; 250 g ai/ha)
45: Plant response rating, Velvetleaf (velvetleaf; [6])
80: Plant response rating, Barnyardgrass (barnyardgrass [2]; [15]) | Plant response rating, Barnyardgrass (barnyardgrass [2]; [16])

— patent publication US10294202B2, “Pyrrolidinones as herbicides” (FMC Corporation, priority 2013, dated 2019)
